Laboratory results: patent US20260285855A1, “HETEROARYL DERIVATIVES AS DDRS INHIBITORS” (CHIESI FARMACEUTICI S.P.A., priority 2023, published 2026)
pKi: −log10 of the molar value.

Columns and labels:
DDR2 = target: T1, DDR2 (Homo sapiens, UniProt Q16832); assay: LanthaScreen Europium Kinase Binding assay, DDR2; details: 5 nM DDR2, 10 nM Kinase Tracer 178, 1 h at rt; Ki from IC50 by Cheng-Prusoff; read-out: Ki DDR2
T1 construct: purchased Life Technologies
T1 sequence (Q16832 22-855): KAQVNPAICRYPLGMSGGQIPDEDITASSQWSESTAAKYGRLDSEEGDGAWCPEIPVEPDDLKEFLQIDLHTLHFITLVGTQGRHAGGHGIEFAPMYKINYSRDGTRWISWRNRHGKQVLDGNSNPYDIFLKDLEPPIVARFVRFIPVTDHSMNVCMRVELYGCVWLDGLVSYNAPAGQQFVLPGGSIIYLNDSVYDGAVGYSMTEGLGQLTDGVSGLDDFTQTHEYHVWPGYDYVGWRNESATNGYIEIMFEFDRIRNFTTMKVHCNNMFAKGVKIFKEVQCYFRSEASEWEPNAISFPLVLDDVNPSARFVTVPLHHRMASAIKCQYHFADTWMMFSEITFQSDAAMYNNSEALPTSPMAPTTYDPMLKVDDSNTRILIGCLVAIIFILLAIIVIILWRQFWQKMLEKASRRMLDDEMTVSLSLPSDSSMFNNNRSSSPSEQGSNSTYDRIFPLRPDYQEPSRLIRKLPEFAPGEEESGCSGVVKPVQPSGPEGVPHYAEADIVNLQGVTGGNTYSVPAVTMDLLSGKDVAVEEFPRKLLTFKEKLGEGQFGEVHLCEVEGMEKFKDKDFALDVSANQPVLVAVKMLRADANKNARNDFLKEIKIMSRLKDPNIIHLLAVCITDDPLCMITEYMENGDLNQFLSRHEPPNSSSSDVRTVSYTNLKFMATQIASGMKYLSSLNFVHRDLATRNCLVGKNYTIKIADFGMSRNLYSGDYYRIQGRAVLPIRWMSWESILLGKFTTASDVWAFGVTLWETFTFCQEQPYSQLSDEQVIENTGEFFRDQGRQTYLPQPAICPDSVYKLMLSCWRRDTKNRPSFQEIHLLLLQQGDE
Protocol: (§1) DDR1 and DDR2 binding assays were performed using Life Technologies LanthaScreen™ Europium Kinase Binding assay. […] IC50 values were determined in GraphPad Prism 7.0 software, using 4 parameter model: log (inhibitor) vs. response. IC50 values were converted in Ki using the Cheng-Prusoff equation (Ki-IC50/(1+ [Tracer]/Kd).

DDR1 = target: T2, DDR1 (Homo sapiens, UniProt Q08345); assay: LanthaScreen Europium Kinase Binding assay, DDR1; details: 5 nM DDR1, 20 nM Kinase Tracer 178, 1 h at rt; Ki from IC50 by Cheng-Prusoff; read-out: Ki DDR1
T2 construct: purchased Carna Biosciences
Protocol: as §1

T2 sequence (Q08345 19-913): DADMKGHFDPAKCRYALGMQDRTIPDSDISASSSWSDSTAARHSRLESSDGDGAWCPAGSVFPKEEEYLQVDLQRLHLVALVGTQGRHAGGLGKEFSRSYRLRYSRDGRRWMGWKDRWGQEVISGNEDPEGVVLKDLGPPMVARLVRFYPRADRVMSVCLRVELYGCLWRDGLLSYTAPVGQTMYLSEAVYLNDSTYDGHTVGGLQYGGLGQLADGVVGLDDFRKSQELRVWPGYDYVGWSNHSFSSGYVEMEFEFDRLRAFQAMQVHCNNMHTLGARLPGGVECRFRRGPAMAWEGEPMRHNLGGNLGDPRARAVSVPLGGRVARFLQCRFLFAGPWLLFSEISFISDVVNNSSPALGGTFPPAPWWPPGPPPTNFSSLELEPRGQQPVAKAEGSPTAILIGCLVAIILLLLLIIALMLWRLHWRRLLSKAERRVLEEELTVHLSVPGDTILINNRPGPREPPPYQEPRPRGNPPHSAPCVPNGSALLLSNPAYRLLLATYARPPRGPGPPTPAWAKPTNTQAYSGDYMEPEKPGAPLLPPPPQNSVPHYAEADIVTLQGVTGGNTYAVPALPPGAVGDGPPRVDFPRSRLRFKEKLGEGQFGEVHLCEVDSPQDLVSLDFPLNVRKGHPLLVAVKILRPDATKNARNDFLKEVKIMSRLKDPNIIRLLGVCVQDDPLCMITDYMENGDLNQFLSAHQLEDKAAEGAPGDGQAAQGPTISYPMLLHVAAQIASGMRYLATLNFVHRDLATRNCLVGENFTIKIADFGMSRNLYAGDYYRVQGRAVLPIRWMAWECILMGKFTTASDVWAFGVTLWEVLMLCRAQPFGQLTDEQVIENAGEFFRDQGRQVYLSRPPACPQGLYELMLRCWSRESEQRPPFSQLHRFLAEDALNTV

| pKi (DDR2) | pKi (DDR1) | SMILES |
| --- | --- | --- |
| > 8.30 | > 8.30 | Cn1ccn2ncc(C(=O)N3CC4(CC(CC(=O)Nc5cc(C(F)(F)F)ccn5)C4)C3)c12 [Example 279, 2-(2-(1-methyl-1H-imidazo[1,2-b]pyrazole-7-carbonyl)-2-azaspiro[3.3]hepan-6-yl)-N-(4-(trifluoromethyl)pyridin-2-yl)acetamide] |
| > 8.30 | > 8.30 | Cc1ccc(OC(F)(F)F)cc1NC(=O)N(C)C1CC2(C1)CN(C(=O)c1ncnc3ccsc13)C2 [Example 280, 1-methyl-3-(2-methyl-5-(trifluoromethoxy)phenyl)-1-(2-(thieno[3,2-d]pyrimidine-4-carbonyl)-2-azaspiro[3.3]heptan-6-yl)urea] |
| 7.60 to 8.30 | > 8.30 | CN(C(=O)Nc1cc(C#N)cc(C(F)(F)F)c1)C1CC2(C1)CN(C(=O)c1ncnc3[nH]ccc13)C2 [Example 284, 1-(2-(7H-pyrrolo[2,3-d]pyrimidine-4-carbonyl)-2-azaspiro[3.3]heptan-6-yl)-3-(3-cyano-5-(trifluoromethyl)phenyl)-1-methylurea] |
| 7.60 to 8.30 | > 8.30 | CN(C(=O)Nc1cc(Cl)cc(C(F)(F)F)c1)C1CC2(C1)CN(C(=O)c1ncnc3[nH]ccc13)C2 [Example 286, 1-(2-(7H-pyrrolo[2,3-d]pyrimidine-4-carbonyl)-2-azaspiro[3.3]heptan-6-yl)-3-(3-chloro-5-(trifluoromethyl)phenyl)-1-methylurea] |
| 7.60 to 8.30 | > 8.30 | COc1cc(NC(=O)N(C)C2CC3(C2)CN(C(=O)c2cnn4ccn(C)c24)C3)cc(C(F)(F)F)c1 [Example 287, 3-(3-methoxy-5-(trifluoromethyl)phenyl)-1-methyl-1-(2-(1-methyl-1H-imidazo[1,2-b]pyrazole-7-carbonyl)-2-azaspiro[3.3]heptan-6-yl)urea] |
| 7.60 to 8.30 | > 8.30 | CN(C(=O)Nc1cc(C(F)(F)F)cs1)C1CC2(C1)CN(C(=O)c1cnn3ccn(C)c13)C2 [Example 291, 1-methyl-1-(2-(1-methyl-1H-imidazo[1,2-b]pyrazole-7-carbonyl)-2-azaspiro[3.3]heptan-6-yl)-3-(4-(trifluoromethyl)thiophen-2-yl)urea] |
| > 8.30 | > 8.30 | CC(C)(c1cc(NC(=O)OC2CC3(C2)CN(C(=O)c2cnn4ccsc24)C3)no1)C(F)(F)F [Example 293, 2-(pyrazolo[5,1-b]thiazole-7-carbonyl)-2-azaspiro[3.3]heptan-6-yl(5-(1,1,1-trifluoro-2-methylpropan-2-yl)isoxazol-3-yl)carbamate] |
| > 8.30 | > 8.30 | Cn1ccn2ncc(C(=O)N3CC4(CC(OC(=O)Nc5cc(OC(F)(F)F)ccn5)C4)C3)c12 [Example 294, 2-(1-methyl-1H-imidazo[1,2-b]pyrazole-7-carbonyl)-2-azaspiro[3.3]heptan-6-yl(4-(trifluoromethoxy)pyridin-2-yl)carbamate] |
| > 8.30 | > 8.30 | Cc1ccc(OC(F)(F)F)cc1NC(=O)OC1CC2(C1)CN(C(=O)c1cnn3ccn(C)c13)C2 [Example 295, 2-(1-methyl-1H-imidazo[1,2-b]pyrazole-7-carbonyl)-2-azaspiro[3.3]heptan-6-yl(2-methyl-5-(trifluoromethoxy)phenyl)carba-mate] |
| 7.60 to 8.30 | > 8.30 | Cn1ccn2ncc(C(=O)N3CC4(CC(OC(=O)Nc5cc(C(F)(F)F)ccn5)C4)C3)c12 [Example 296, 2-(1-methyl-1H-imidazo[1,2-b]pyrazole-7-carbonyl)-2-azaspiro[3.3]heptan-6-yl(4-(trifluoromethyl)pyridin-2-yl)carbamate] |
| 7.60 to 8.30 | > 8.30 | Cn1ccn2ncc(C(=O)N3CC4(CC(OC(=O)Nc5cc(C(F)(F)F)ncn5)C4)C3)c12 [Example 297, 2-(1-methyl-1H-imidazo[1,2-b]pyrazole-7-carbonyl)-2-azaspiro[3.3]heptan-6-yl(6-(trifluoromethyl)pyrimidin-4-yl)carbamate] |

The remaining lines, values behind:

| SMILES | pKi (DDR2) | pKi (DDR1) |
| --- | --- | --- |
| Cc1cc(NC(=O)N(C)C2CC3(C2)CN(C(=O)c2cnn4ccn(C)c24)C3)cc(OC(F)(F)F)c1 [Example 281, 1-methyl-1-(2-(1-methyl-1H-imidazo[1,2-b]pyrazole-7-carbonyl)-2-azaspiro[3.3]heptan-6-yl)-3-(3-methyl-5-(trifluoromethoxy)phenyl)urea] | 7.60 to 8.30 | > 8.30 |
| CCc1ccc(C(F)(F)F)cc1NC(=O)NC1CC2(C1)CN(C(=O)c1cnn3ccn(C)c13)C2 [Example 282, 1-(2-ethyl-5-(trifluoromethyl)phenyl)-3-(2-(1-methyl-1H-imidazo[1,2-b]pyrazole-7-carbonyl)-2-azaspiro[3.3]heptan-6-yl)urea] | > 8.30 | > 8.30 |
| Cc1c(F)cc(C(F)(F)F)cc1NC(=O)N(C)C1CC2(C1)CN(C(=O)c1cnn3ccn(C)c13)C2 [Example 283, 3-(3-fluoro-2-methyl-5-(trifluoromethyl)phenyl)-1-methyl-1-(2-(1-methyl-1H-imidazo[1,2-b]pyrazole-7-carbonyl)-2-azaspiro[3.3]heptan-6-yl)urea] | 7.60 to 8.30 | > 8.30 |
| CN(C(=O)Nc1cc(C(F)(F)F)ccc1Cl)C1CC2(C1)CN(C(=O)c1ncnc3[nH]ccc13)C2 [Example 285, 1-(2-(7H-pyrrolo[2,3-d]pyrimidine-4-carbonyl)-2-azaspiro[3.3]heptan-6-yl)-3-(2-chloro-5-(trifluoromethyl)phenyl)-1-methylurea] | > 8.30 | > 8.30 |
| CCOc1ccc(C(F)(F)F)cc1NC(=O)N(C)C1CC2(C1)CN(C(=O)c1cnn3ccn(C)c13)C2 [Example 288, 3-(2-ethoxy-5-(trifluoromethyl)phenyl)-1-methyl-1-(2-(1-methyl-1H-imidazo[1,2-b]pyrazole-7-carbonyl)-2-azaspiro[3.3]heptan-6-yl)urea] | 7.60 to 8.30 | > 8.30 |
| Cc1nc(NC(=O)N(C)C2CC3(C2)CN(C(=O)c2cnn4ccsc24)C3)cc(C(F)(F)F)n1 [Example 289, 1-methyl-3-(2-methyl-6-(trifluoromethyl)pyrimidin-4-yl)-1-(2-(pyrazolo[5,1-b]thiazole-7-carbonyl)-2-azaspiro[3.3]heptan-6-yl)urea] | 7.60 to 8.30 | > 8.30 |
| Cc1nc(NC(=O)N(C)C2CC3(C2)CN(C(=O)c2cnn4ccn(C)c24)C3)cc(C(F)(F)F)n1 [Example 290, 1-methyl-1-(2-(1-methyl-1H-imidazo[1,2-b]pyrazole-7-carbonyl)-2-azaspiro[3.3]heptan-6-yl)-3-(2-methyl-6-(trifluoromethyl)pyrimidin-4-yl)urea] | 7.00 to 7.60 | 7.60 to 8.30 |
| O=C(Nc1cc(C(F)(F)F)ncn1)OC1CC2(C1)CN(C(=O)c1cnn3ccsc13)C2 [Example 292, 2-(pyrazolo[5,1-b]thiazole-7-carbonyl)-2-azaspiro[3.3]heptan-6-yl(6-(trifluoromethyl)pyrimidin-4-yl)carbamate] | 7.60 to 8.30 | > 8.30 |
| CCOc1ccc(C(F)(F)F)cc1NC(=O)NC1CC2(C1)CN(C(=O)c1cnn3ccn(C)c13)C2 [Example 298, 1-(2-ethoxy-5-(trifluoromethyl)phenyl)-3-(2-(1-methyl-1H-imidazo[1,2-b]pyrazole-7-carbonyl)-2-azaspiro[3.3]heptan-6-yl)urea] | > 8.30 | > 8.30 |
| Cn1ccn2ncc(C(=O)N3CC4(CC(OC(=O)Nc5cncc(OC(F)(F)F)c5)C4)C3)c12 [Example 299, 2-(1-methyl-1H-imidazo[1,2-b]pyrazole-7-carbonyl)-2-azaspiro[3.3]heptan-6-yl(5-(trifluoromethoxy)pyridin-3-yl)carbamate] | > 8.30 | > 8.30 |
| Cc1cc(C(F)(F)F)cc(NC(=O)N(C)C2CC3(C2)CN(C(=O)c2cnn4ccn(C)c24)C3)n1 [Example 300, 1-methyl-1-(2-(1-methyl-1H-imidazo[1,2-b]pyrazole-7-carbonyl)-2-azaspiro[3.3]heptan-6-yl)-3-(6-methyl-4-(trifluoromethyl)pyridin-2-yl)urea] | 7.60 to 8.30 | > 8.30 |
| [2H]C([2H])([2H])n1ccn2ncc(C(=O)N3CC4(CC(CC(=O)Nc5cc(OC(F)(F)F)ccn5)C4)C3)c12 [Example 301, 2-(2-(1-(methyl-d3)-1H-imidazo[1,2-b]pyrazole-7-carbonyl)-2-azaspiro[3.3]heptan-6-yl)-N-(4-(trifluoromethoxy)pyridin-2-yl)acetamide] | > 8.30 | > 8.30 |
